Source: US12383556B2, “Methods of treating Sjögren's syndrome using a Bruton's tyrosine kinase inhibitor” (NOVARTIS AG, priority 2019, dated 2025)
Where two headings read alike, the source gives them in different places.

Tests used:
[1] = First-in-human Part 3 food effect PK, single 60 mg dose; format: in vivo; conditions: for Tmax / AUC(0-t): human, oral, 60 mg
Description: First-in-human study in up to approximately 168 healthy volunteers (HVs), of which 64 (in Parts 2 & 4) had asymptomatic atopic diathesis. • Part 1 was a double-blind (subject and investigator blind, sponsor unblinded), placebo-controlled single ascending dose (SAD) escalation study of 10 cohorts (N=80) • Part 2 was a double-blind (subject and investigator blind, sponsor unblinded), placebo-controlled multiple ascending dose (MAD) (13 doses over 12 days) escalation study employing once daily dosing in 6 cohorts in healthy volunteers with asymptomatic atopic diathesis (N=48) • Part 3 was a single dose open-label crossover food effect study in 12 HVs • Part 4 was a double-blind (subject and investigator blind, sponsor unblinded), placebo-controlled multiple dose (25 doses over 12 days) study employing twice daily dosing in 2 cohorts of healthy volunteers with asymptomatic atopic diathesis (N=16)
Part 3 was an open-label, randomized, two-way cross-over, single dose study to assess food effects. In Part 3, each subject participated in a 28 day screening period (Day −29 to −2), 2 baseline (Day −1) and 2 treatment periods, each consisting of a single dose administration on Day 1 followed by safety and PK assessment up to Day 5. Treatment period 2 consisted of a follow-up visit and an end of study evaluation on Day 22 and 40, respectively. The two treatment periods were separated by a wash-out period of at least 18 days (+/−1 day).
Subjects were randomized to one of the 2 treatment sequences in the ratio of 1:1:
Pharmacokinetic samples were obtained in blood and evaluated in all subjects at all dose levels. The samples from placebo subjects were not analyzed. The samples for PK assessments from subjects were collected at time points defined in the study. Compound (I) concentrations were determined in blood by a validated LC-MS/MS method.

[2] = test system: defined allergen response (wheal size); experiment: Skin prick test (SPT) in healthy atopic subjects; format: in vivo, human; conditions: for dose at which reduction of wheal size in SPT started to plateau: multiple ascending dose, q.d.
Experimental: The ability of compound (I) to inhibit a defined allergen response has been evaluated by means of the skin prick test (SPT) in healthy atopic subjects in the MAD study part of the first in human study. SPT was performed prior to dosing (at screening, baseline and pre-dose on Day 1) and at different time points after the first dose (Day 1) and after 11 days of once daily dosing (Day 12).

[3] = Safety and tolerability in healthy volunteers (first-in-human study); format: in vivo; conditions: for overall safety assessment: dosing up to 600 mg (200 mg twice daily)
Experimental: Standard safety monitoring was used throughout all study parts. A dedicated assessment of potential skin bruising events were included. All vital signs, physical examination and subject history, ECGs, adverse events, and laboratory safety parameters (blood chemistry, hematology and urinalysis) up to 96 hours post last dose as well as PK data from the previous dose group (if available) up to 48 hours post last dose were to be reviewed in a blinded fashion for each cohort before dose escalation. Summary safety reports of reported adverse events, clinical safety laboratory parameters, QTc and heart rate were provided after completion of each dose level.
For the analysis of adverse effects, the Placebo subjects from all SAD and MAD cohorts (2 per cohort) and separated by the SAD and MAD parts were pooled into one Placebo group (n=20 for SAD and n=16 for MAD) to be compared with each single compound (I) dose group (n=6 each) and the total compound (I) group (n=60 for SAD and n=48 for MAD). There were no apparent major differences in the demographic data between placebo and the active groups both for the SAD and MAD populations.

[4] = test system: mast cell FcγRIII-mediated inflammation; experiment: Reverse passive Arthus (RPA) model, skin swelling; format: in vivo
Experimental: As the levels of BTK-expressing cells in skin were too low to allow occupancy measurement, the duration of the PD effect in skin after single dose was assessed in the reverse passive Arthus (RPA) model of mast cell FcγRIII-mediated inflammation. In this model, the inhibition of skin swelling was maximal when compound (I) was dosed 2 hours prior to eliciting the Arthus reaction. The effect diminished gradually and reached baseline when the Arthus reaction was triggered 45 hours or later after compound (I) dosing.

BTK [5] = experiment: BTK occupancy ex vivo immunoassay (biotinylated BTK probe) in tissues after oral dosing; design: species or system rat; conditions: spleen of rodents
Experimental: (§1) The in vivo PD effects of an irreversible BTK inhibitor like compound (I) are determined by the extent and duration of covalent BTK occupancy by the inhibitor. BTK occupancy after treatment with Compound of Formula (I) (also referenced to as Compound (I)) was measured in an ex vivo immunoassay. The fraction of unoccupied BTK protein was assayed after in vitro incubation with a covalent biotinylated BTK probe, since compound (I) and the probe bind to BTK in a mutually exclusive manner. Unoccupied BTK, as well as total BTK relative protein levels were determined in lysates of selected tissues and levels of unoccupied BTK were normalized to total BTK protein levels in the same samples.
(§2) From the experimental data it was apparent that a short transient systemic exposure of compound (I) is sufficient to achieve full BTK occupancy in several tissues at low oral doses of 1-3 mg/kg. […] This very low and transient systemic exposure is consistent with the PK/PD model typical of irreversible inhibitors.
(§3) The duration of BTK occupancy was determined in rats and mice after single oral dose of compound (I) for spleen, blood, lymph nodes and lung. […] The longer persistence of BTK occupancy in blood has been reported before (Advani et al 2013, J Clin Onc; 31(1):88-94).

BTK [6] = biological target: T1, BTK (Rattus norvegicus, UniProt Q5S255); experiment: as above
T1 construct: total BTK relative protein levels were determined in lysates of selected tissues; from tissue; host or cells: rat spleen, blood, lymph nodes, lung (lysates)
T1 sequence (Q5S255 1-660): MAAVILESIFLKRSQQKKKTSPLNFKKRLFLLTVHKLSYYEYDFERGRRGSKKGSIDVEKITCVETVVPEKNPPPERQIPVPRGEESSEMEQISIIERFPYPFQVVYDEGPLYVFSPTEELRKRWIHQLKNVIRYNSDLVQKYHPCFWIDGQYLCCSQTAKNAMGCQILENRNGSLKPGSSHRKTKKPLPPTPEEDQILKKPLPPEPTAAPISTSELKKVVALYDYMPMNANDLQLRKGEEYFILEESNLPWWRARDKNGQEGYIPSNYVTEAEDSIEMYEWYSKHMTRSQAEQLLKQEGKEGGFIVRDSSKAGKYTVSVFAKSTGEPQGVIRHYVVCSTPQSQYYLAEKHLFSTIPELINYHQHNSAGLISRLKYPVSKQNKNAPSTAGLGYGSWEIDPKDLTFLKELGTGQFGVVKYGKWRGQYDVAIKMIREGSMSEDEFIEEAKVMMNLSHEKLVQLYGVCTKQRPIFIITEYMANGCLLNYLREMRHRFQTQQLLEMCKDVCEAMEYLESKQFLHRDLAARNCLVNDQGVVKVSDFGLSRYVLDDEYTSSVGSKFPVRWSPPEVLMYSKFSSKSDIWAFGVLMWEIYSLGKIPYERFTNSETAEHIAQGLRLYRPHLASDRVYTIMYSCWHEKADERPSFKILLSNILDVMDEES
Experimental: as §1, §2, §3

[7] = single dose 60 mg, FAST, Geomean
[8] = single dose 60 mg, FED, Geomean

C=CC(=O)N(C)CCOc1c(N)ncnc1-c1cc(F)cc(NC(=O)c2ccc(C3CC3)cc2F)c1C [Compound of Formula (I), N-(3-(6-Amino-5-(2-(N-methylacrylamido)ethoxy)pyrimidin-4-yl)-5-fluoro-2-methylphenyl)-4-cyclopropyl-2-fluorobenzamide]
Tmax ([1]; blood, fasted, read-out: mean Tmax): 1 h | Tmax ([1]; blood, fed, read-out: mean Tmax): > 3 h | AUC(0-t) ([1]; blood, single dose 60 mg, FAST, Geomean, read-out: AUC0-24): 182 ng·h/mL | AUC(0-t) ([1]; blood, single dose 60 mg, FAST, Geomean, read-out: AUClast): 177 ng·h/mL | AUC(0-t) ([1]; blood, single dose 60 mg, FAST, Mean, read-out: AUC0-24): 202 ng·h/mL | AUC(0-t) ([1]; blood, single dose 60 mg, FAST, Mean, read-out: AUClast): 196 ng·h/mL | Tmax ([1]; blood, single dose 60 mg, FED, Geomean, read-out: Tmax): 3.18 h | Tmax ([1]; whole blood, single dose 60 mg, FAST, Geomean, read-out: Tmax): 0.95 h | Tmax ([1]; whole blood, single dose 60 mg, FAST, Mean, read-out: Tmax): 1.02 h | AUC(0-t) ([1]; whole blood, single dose 60 mg, FED, Geomean, read-out: AUC0-24): 249 ng·h/mL | AUC(0-t) ([1]; whole blood, single dose 60 mg, FED, Mean, read-out: AUC0-24): 264 ng·h/mL | AUC(0-t) ([1]; whole blood, single dose 60 mg, FED, Mean, read-out: AUClast): 252 ng·h/mL | Tmax ([1]; whole blood, single dose 60 mg, FED, Mean, read-out: Tmax): 3.42 h | Cmax [1, 7]: 100.95 ng/mL | Tlast [1, 7]: 9.66 h | Cmax ([1]; single dose 60 mg, FAST, Mean): 114.81 ng/mL | Tlast ([1]; single dose 60 mg, FAST, Mean): 10.50 h | AUClast [1, 8]: 237.84 ng·h/mL | Cmax [1, 8]: 80.86 ng/mL | Tlast [1, 8]: 9.25 h | Cmax ([1]; single dose 60 mg, FED, Mean): 83.39 ng/mL | Tlast ([1]; single dose 60 mg, FED, Mean): 9.50 h | higher AUC0-24 fed vs fasted ([1]; single oral dose 60 mg): 1.4 fold | lower Cmax fed vs fasted ([1]; single oral dose 60 mg): 1.25 fold | inhibition of wheal size in SPT ([2]; 10 mg q.d.): minimal inhibition | dose at which reduction of wheal size in SPT started to plateau ([2]; listed as compound (I)): around 100 mg | dose at which reduction of wheal size in SPT started to plateau ([2]; listed as compound of Formula (I)): 100 mg | serious or severe adverse events related to intake ([3]; 0.5 mg to 600 mg, healthy volunteers): no serious or severe adverse event | tolerability ([3]; 0.5 mg to 600 mg, single dose or up to 18 days once or twice daily): well tolerated | overall safety assessment [3]: proven to be safe | overall safety assessment ([3]; listed as compound (I)): does not reveal significant safety concerns | nature of observed adverse events ([3]; healthy volunteers): generally mild in nature | time after dosing of Arthus trigger at which effect reached baseline ([4]; single dose): ≥ 45 h | inhibition of skin swelling ([4]; single dose 2 hours prior to eliciting the Arthus reaction): maximal | BTK turnover in tissue (spleen) (BTK [5]): approximately 5 hours | BTK occupancy in blood (BTK [6]; female rats, single oral dose): consistent with those observed in spleen | spleen BTK occupancy (BTK [6]; female rats, single oral dose 3 mg/kg): full | receptor occupancy at 0.3 mg/kg (BTK [6]; rat, female rats, single oral dose 0.3 mg/kg, read-out: spleen BTK occupancy): 30% | receptor occupancy at 1 mg/kg (BTK [6]; rat, female rats, single oral dose 1 mg/kg, read-out: spleen BTK occupancy): 76 to 81% | BTK occupancy half-life in blood (BTK [6]; rats, single oral dose): approximately 87 hours | BTK occupancy half-life in spleen (BTK [6]; rats, single oral dose): approximately 5 hours
